Test system: v6A3 cells
Experiment: MTT assay, v6A3 cells
Type: cell-based
Conditions: Homo sapiens, PC-3M, 48 h, 5000 cells per well, triplicate, 562 nm, after continuous passage for one month, P< 0.05 vs PC3M, read-out: DOX IC50 of v6A3

COc1cccc2c1C(=O)c1c(O)c3c(c(O)c1C2=O)C[C@@](O)(C(=O)CO)C[C@@H]3O[C@H]1C[C@H](N)[C@H](O)[C@H](C)O1 [DOX, doxorubicin]
IC50: 140 nM
